Where “and” joins values, the source holds several entries; their conditions need not be identical. Identical values can stand only once. One block for each compound: values may come before it.
Tests used:
[1] = tested on: mucins of 4% HBE mucus; assay: mucin molecular weight by GPC-MALLS; assay type: biochemical, human; conditions: 1 mM, 1 hr at 37° C.; from 180 MDa
Text: Mucus Preparation: Aseptic mucus was harvested from over 100 individual HBE cultures from 20 different CF donors and prepared to four weight-percent (4%) solids, a concentration that typifies chronic obstructive pulmonary disease (COPD) and mild CF (Hill, D. B. et al., 2014, A biophysical basis for mucus solids concentration as a candidate biomarker for airways disease, PloS one 9, e87681; Anderson, W. H. et al., 2015, The relationship of mucus concentration (hydration) to mucus osmotic pressure and transport in chronic bronchitis., Am J Resp Crit Care Med 192: 182-90). […] Creep recovery experiments were performed in which a known stress (between 0.05 and ˜100 Pa) was applied to treated or control mucus for 10 seconds, and the rheological recovery of the fluid was recorded for an additional 50 seconds. […] From the measured parameters the viscosity and elasticity of the fluid were determined as a function of applied stress. […] Mucin molecular weight determination: Molecular weight reduction following test article treatment was determined using a combination of gel-permeation chromatography with multi-angle laser light scattering on a Wyatt Heleos MALLS system. […] Mucin MW was determined by fitting a Berry model to light scattering from 11 different angles using Wyatt Astra software. […]

[2] = tested on: CF patient sputum on wild type rat trachea; assay: CF sputum transport ex vivo on excised rat trachea (μOCT); set-up: species or system human sputum; conditions: sputum treated 2 hrs; ORP100S 3 mM, DTT 1.6 mM, DNase 10 or 25 μg/ml; PBS 0.97±0.17
Description: To determine the effect of ORP100S on CF sputum transportability, sputum specimens spontaneously expectorated from 4 CF patients hospitalized for pulmonary exacerbation were collected and stored at 4° C. before being divided into 200 μL aliquots and treated with ORP100S (3 mM), PBS, DTT (1.6 mM), or DNase (10 or 25 μg/ml) on the day of or day following collection. Upon treatment, sputum aliquots were placed in a 37° C. water bath for 2 hrs and then applied (3 μl per sample) for μOCT imaging to the distal end of trachea excised from adult non-CF rats. Trachea were washed 2× with 500 μl of PBS before sputum addition. […]
One-micron resolution spectral domain μOCT was used to obtain measurements of mucociliary transport (MCT) rate and ciliary beat frequency (CBF) in HBE monolayers and of MCT rate of sputum ex vivo. […] Images were captured, and MCT rate and CBF calculated, as described in the preceding references.
The effect of ORP100S on mucus clearance using intact rat trachea, which include the complexities of the airway surface such as gland expression of a fully differentiated mucosal surface, was further evaluated. […] MCT was measured by projecting a cross-sectional line through the mucus through time, with the slope of the particle trajectories indicating velocity. […]

[3] = tested on: primary HBE cells from CF donors homozygous for F508del; assay: μOCT of MCT rate and CBF in CF primary HBE cells; assay type: cell-based, human; conditions: 3 hrs post-treatment; ORP100S 1-3 mM, DTT 1.6 mM; PBS 7.30±2.9; mean±SE
Text: (§1) Primary human bronchial epithelial (HBE) cells were derived from lung explants from healthy failed donors and CF patients homozygous for F508del CFTR. […]
(§2) One-micron resolution spectral domain μOCT was used to obtain measurements of mucociliary transport (MCT) rate and ciliary beat frequency (CBF) in HBE monolayers and of MCT rate of sputum ex vivo. This first-in-kind, high-speed (40 frames per second, 512 lines per frame) microscopic reflectance imaging modality enables simultaneous anatomic imaging in cell cultures and intact tissues that readily distinguishes the properties of CF compared to normal epithelia (Liu L, Chu K K, Houser G H, Diephuis B J, Li Y, Wilsterman E J, Shastry S, Dierksen G, Birket S E, Mazur M, et al., 2013, Method for quantitative study of airway functional microanatomy using micro-optical coherence tomography, PLoS One 8(1):e54473; Tuggle K L, Birket S E, Cui X, Hong J, Warren J, Reid L, Chambers A, Ji D, Gamber K, Chu K K, et al., 2014, Characterization of defects in ion transport and tissue development in Cystic Fibrosis Transmembrane Conductance Regulator (CFTR)-knockout rats. […] Images were captured, and MCT rate and CBF calculated, as described in the preceding references.

[4] = tested on: primary HBE cells from healthy non-CF donors; assay: μOCT of MCT rate and CBF in non-CF primary HBE cells; assay type: cell-based, human; conditions: 3 hrs post-treatment; ORP100S 1-3 mM, DTT 1.6 mM; PBS 0.05±0.007; mean±SE
Text: as §1, §2

[5] = thiol pKa; thioredoxin: active site Cys32; cited from earlier work
[6] = molecular target: T1, human insulin (Homo sapiens, UniProt P01308); assay: RP-HPLC insulin reduction assay (conversion of insulin heterodimer); assay type: biochemical
T1 construct: The two chains of human insulin have a total of six Cys residues which form three disulfide bonds in its mature structure
Description: Functional assays 1. Reduction state of ORP100S was quantified using DTNB which reacts with free SH groups resulting in a yellow color change at 412 nm. Fifty microliters of 2.5 mM rhTrx was added to a 96-well plate, followed by 175 microliters of sample buffer and 25 microliters of 6 mM DTNB. After reactions were initiated by the addition of DTNB, change in kinetic absorbance at 412 nm due to DTNB reduction was monitored spectrophotometrically at 30° C. ORP100S concentration was determined by A280 (Nanodrop) using the extinction coefficient of human Trx-1 (7,000). The actual concentrations of free sulfhydryl groups were calculated based on the absorbance at 412 nm and the extinction coefficient of DTNB (14,150) in order to determine the reduction state as percentage of free sulfhydryl. […] 2. Percent of free monomer ORP100S in solution was determined using SEC. Samples were analyzed on a BioBasic S-300 250×4.6 column (Thermo Scientific) run on an Agilent 1100 HPLC system. […] The flow rate was 0.35 mL/min and absorbance was monitored at 280 nm. […] The ORP100S monomer percentage was determined by integration of the area under the peak of the monomeric fraction divided by the total area under the curve of the chromatogram. […] Disulfide bond reduction activity of ORP100S was quantified by assaying the reduction state of a small protein (human insulin) which in its heterodimeric form contains two intermolecular and one intramolecular disulfide, all three of which are known to be suitable thioredoxin substrates. Insulin reduction has classically been used to quantify thioredoxin activity by absorbance change following addition of NADPH and TrxR (Holmgren A., 1979, Thioredoxin catalyzes the reduction of insulin disulfides by dithiothreitol and dihydrolipoamide, J Biol Chem 254:9627-32). […] Relative activity at each time point was determined from changes in the area under the insulin heterodimer peak following separation over RP-HPLC (Agilent 1100) using an Intrada WP-RP 50×3 (Imtakt) column. […] The flow rate was 0.2 mL/min and absorbance was measured at 280 nm. […]

T1 sequence (P01308 25-54 limits assumed): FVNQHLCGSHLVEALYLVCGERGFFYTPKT
T1 sequence (P01308 90-110 limits assumed): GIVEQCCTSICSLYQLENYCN

Compound: O[C@H](CS)[C@H](O)CS (racemic) [DTT, dithiothreitol, reference compound]
molecular weight of mucins [1]: 210 MDa
MCT rate of treated sputum [2]: 2.31±0.34 mm/min
MCT rate [3]: 33.33±12.9 mm/min
MCT rate [4]: 1.41±0.1 mm/min

Compound: N[C@@H](CCC(=O)N[C@@H](CS)C(=O)NCC(=O)O)C(=O)O [GSH, glutathione]
pKa [5]: 9.1

Compound: O=S(=O)(O)CCS [Mesna, 2-mercaptoethane sulfonate Na]
pKa [5]: 9.2

insulin reduction ([6]; 1.25 mM, pH 6 or 8, 60 min): inactive
insulin reduction ([6]; 12.5 mM, pH 6, 60 min): not at pH 6
insulin reduction ([6]; 12.5 mM, pH 8, 60 min): able to reduce insulin
Compound: CC(=O)N[C@@H](CS)C(=O)O [NAC, N-acetyl cysteine, reference compound]

Compound: NCCS [cysteamine]
pKa [5]: 8.3 and 8.5

Source: patent US20230071765A1, “COMPOSITIONS HAVING THIOREDOXIN ACTIVITY AND RELATED METHODS” (ORPRO THERAPEUTICS, INC., priority 2020, published 2023)
